Consider two compounds from patent US7692030B2, “Conjugates of artemisinin-related endoperoxides and hydrazone derivatives for the treatment of cancer” (University of Washington, priority 2006, dated 2010).

The test system of one test is human leukemia cells. Conditions: cited from earlier work.
For test [1], the system named is DAOY medulloblastoma cells. Briefly: DAOY medulloblastoma cells, MTT assay and light microscopy. Conditions: after 24 h treatment; each treatment had holo-Tf (20 μg/well). The class given is cell-based. The procedure: The compound ART-Phe-Sal was tested on DAOY medulloblastoma cells using the MTT assay. DAOY Medulloblastoma cells (5,000 cells/200 μL) was seeded on a 96 well plate and incubated for 24 h at 37° C. Cell culture medium was removed after 24 h and 150 μL of medium with treatment was added. Each experimental treatment had holo-Tf (20 μg/well). Treatment assay was viewed under light microscope after 24 h.
Treatment medium was removed after 48 h, and 100 μL of cell medium was added. MTT Reagent (10 μL, 12 mM) was added to each well. This solution was incubated at 37° C. for 4 h. Isopropanol (100 μL) was added to each well to lyse the cells, which were then incubated at 4° C. for 30 m. After incubation each well was plunged (3×200 μL) to ensure the cells were lysed. The incubated medium with MTT reagent was then centrifuged at 13,000 RPM in an eppendorph centrifuge for 3 minutes at room temperature. 100 μL of supernatant was read in a plate reader at λ=570 nm. FIG. 13 compares the effect of dihydroartemisinin (DHA) and ART-Phe-Sal on DAOY medulloblastoma cell line. The concentration of holo-Tf was 1.7 μM.
On the technique in general: Formazan colour is commonly taken as a measure of viable cells.

`C[C@@H]1CC[C@H]2[C@@H](C)C(=O)O[C@@H]3O[C@@]4(C)CC[C@@H]1[C@]32OO4` [Artemisinin]: the “therapeutic index (toxicity towards cancer cells versus normal cells)” value in the test on human leukemia cells is on record as “approximately 100”.
Consider “holo-Tf: Human holotransferrin (Sigma Chemicals), iron carrying protein added to the cells”, for which, in test [1], the “cell shrinkage under light microscope” value is on record as “Moderate cell shrinkage”.
